Counter-ions that a name gives are not always drawn.
Key:
Megoura viciae = assay: Vetch aphid (Megoura viciae) mortality on sprayed bean leaf disks in microtiterplates; assay type: in vivo; conditions: foliar, 144 h, bean leaf disks sprayed with 2.5 μl, 6 days, read-out: mortality in comparison with untreated controls
Method: The active compounds were formulated in 1:3 DMSO:water. Bean leaf disks were placed into microtiterplates filled with 0.8% agar-agar and 2.5 ppm OPUS™. The leaf disks were sprayed with 2.5 μl of the test solution and 5 to 8 adult aphids were placed into the microtiterplates which were then closed and kept at 22-24° C. and 35-45% under fluorescent light for 6 days. Mortality was assessed on the basis of vital, reproduced aphids. Tests were replicated 2 times.

| melting point [°C] | Structure (SMILES) | mortality at 2500 ppm (Megoura viciae) [%] |
| --- | --- | --- |
| 162 to 164 | Clc1cccc(CC(N=C2NCCN2)c2ccccc2)c1 (centres unmarked) (as salt: salt) [Example 1.1, [2-(3-Chloro-phenyl)-1-phenyl-ethyl]-(4,5-dihydro-1H-imidazol-2-yl)-amine hydroiodide] | – |
| – | CC(=O)N1CCN=C1NC(Cc1ccccc1)c1ccccc1 (centres unmarked) [Example 2.1, 1-[2-(1,2-Diphenylethylamino)-4,5-dihydroimidazol-1-yl]-ethanone] | > 80 |
